This passage reports IC50 results from patent publication US11638707B2, “Substituted amino triazoles useful as chitinase inhibitors” (Molecure S.A., priority 2019, dated 2023).

The target in one data set is recombinant human CHIT1 (Homo sapiens (Human), UniProt Q13231). As to the kind of experiment: Human CHIT1 activity assay. The data set is classed as biochemical. Particulars: recombinant human CHIT1, citrate buffer pH 5.2, 37° C., 60 minutes; read-out: hCHIT1, IC50. Here is the method: (§1) The assay was run in the 96-well plate format, each reaction in the total volume of 100 μL. 4-methylumbelliferyl β-D-N,N′,N″-triacetylchitotriose was used as a substrate for the enzyme. Upon hydrolysis by CHIT1, the substrate releases 4-methylumbelliferyl (4MU) that, when ionized in basic pH, emits fluorescence at 460 nm. Briefly, 40 μL of a substrate was added to each well, followed by 10 μL of compound dilution and 50 μL of CHIT1 recombinant enzyme solution. The reaction was carried out in citrate buffer, pH 5.2, in the dark, at 37° C. for 60 minutes with shaking. […] The IC50 values were calculated using GraphPad Prism.
Chain of recombinant human CHIT1 (Q13231 22-466): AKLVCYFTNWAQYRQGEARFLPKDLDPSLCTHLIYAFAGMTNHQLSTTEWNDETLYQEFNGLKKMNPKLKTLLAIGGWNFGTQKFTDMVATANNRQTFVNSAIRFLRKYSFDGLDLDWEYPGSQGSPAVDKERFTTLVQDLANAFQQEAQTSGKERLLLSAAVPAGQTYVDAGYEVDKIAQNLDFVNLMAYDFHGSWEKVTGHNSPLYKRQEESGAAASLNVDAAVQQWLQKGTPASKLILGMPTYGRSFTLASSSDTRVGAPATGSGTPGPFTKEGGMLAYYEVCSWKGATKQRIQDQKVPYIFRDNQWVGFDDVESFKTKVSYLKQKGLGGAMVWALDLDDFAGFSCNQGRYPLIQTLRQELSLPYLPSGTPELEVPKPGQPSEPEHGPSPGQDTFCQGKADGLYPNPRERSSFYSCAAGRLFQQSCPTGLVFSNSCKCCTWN

In a further data set the target is recombinant human AMCase (Homo sapiens (Human), UniProt Q9BZP6). Put plainly: Human AMCase activity assay. The data set is classed as biochemical. Particulars: citrate buffer pH 5.2, 37° C., 60 minutes, read-out: hAMCase, IC50. Here is the method:
as §1, with “4-Methylumbelliferyl B-D-N,N′-diacetylchitobioside hydrate” for “4-methylumbelliferyl β-D-N,N′,N″-triacetylchitotriose”, “AMCase,” for “CHIT1,”, “hAMCase” for “CHIT1”

A further data set deals with hERG channel (Homo sapiens (Human), UniProt Q12809). As to the kind of experiment: Human ERG channel binding assay (fluorescence polarization). Particulars: tracer displacement, 4 h at room temperature. Here is the method: Human ERG Channel Binding Assay
Chain of hERG channel (Q12809 whole entry): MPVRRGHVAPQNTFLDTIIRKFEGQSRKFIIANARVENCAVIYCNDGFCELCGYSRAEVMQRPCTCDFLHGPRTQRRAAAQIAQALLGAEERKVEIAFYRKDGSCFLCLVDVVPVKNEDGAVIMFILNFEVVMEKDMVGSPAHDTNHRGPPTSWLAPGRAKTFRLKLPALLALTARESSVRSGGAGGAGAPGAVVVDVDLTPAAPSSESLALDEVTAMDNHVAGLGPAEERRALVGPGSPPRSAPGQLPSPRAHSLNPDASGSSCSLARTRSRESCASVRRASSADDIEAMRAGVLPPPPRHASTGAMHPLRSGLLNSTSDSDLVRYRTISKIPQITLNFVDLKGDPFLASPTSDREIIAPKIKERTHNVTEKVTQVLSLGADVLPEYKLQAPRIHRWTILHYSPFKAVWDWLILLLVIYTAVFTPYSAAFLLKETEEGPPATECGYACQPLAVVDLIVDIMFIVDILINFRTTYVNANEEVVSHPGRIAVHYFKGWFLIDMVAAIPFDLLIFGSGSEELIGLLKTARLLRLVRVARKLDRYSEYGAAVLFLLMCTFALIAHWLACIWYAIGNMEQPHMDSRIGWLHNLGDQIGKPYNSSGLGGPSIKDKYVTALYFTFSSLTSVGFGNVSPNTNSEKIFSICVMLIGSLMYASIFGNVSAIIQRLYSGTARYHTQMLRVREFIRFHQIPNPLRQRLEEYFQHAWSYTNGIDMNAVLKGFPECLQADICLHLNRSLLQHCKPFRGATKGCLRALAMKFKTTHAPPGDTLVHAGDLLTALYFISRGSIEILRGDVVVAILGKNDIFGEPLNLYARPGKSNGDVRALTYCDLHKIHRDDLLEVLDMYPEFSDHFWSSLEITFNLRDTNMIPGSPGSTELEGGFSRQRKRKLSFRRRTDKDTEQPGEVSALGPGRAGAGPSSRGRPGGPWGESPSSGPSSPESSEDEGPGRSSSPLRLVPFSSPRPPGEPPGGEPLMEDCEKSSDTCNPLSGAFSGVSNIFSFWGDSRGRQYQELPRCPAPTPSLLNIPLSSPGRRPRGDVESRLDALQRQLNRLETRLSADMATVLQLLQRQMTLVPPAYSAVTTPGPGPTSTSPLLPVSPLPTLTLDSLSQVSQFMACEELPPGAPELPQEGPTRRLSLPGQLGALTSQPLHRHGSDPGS
Fluorescence polarization assay based on the principle of fluorescence polarization where a red-shifted fluorescent tracer is displaced from the hERG channel by compounds that bind to the channel was used to establish the binding of the compounds to hERG channel. […] Briefly, the compounds in serial dilutions were incubated with a membrane fraction containing hERG channel protein and a high-affinity red fluorescent hERG channel ligand in black 384-well plate. […] The IC50 values were calculated using GraphPad Prism.
A general note: Fluorescence polarisation rises when a labelled molecule tumbles more slowly, as on binding a larger partner.

Where a name gives a salt, the structure may show the parent alone.

Chain of recombinant human AMCase (Q9BZP6 22-476): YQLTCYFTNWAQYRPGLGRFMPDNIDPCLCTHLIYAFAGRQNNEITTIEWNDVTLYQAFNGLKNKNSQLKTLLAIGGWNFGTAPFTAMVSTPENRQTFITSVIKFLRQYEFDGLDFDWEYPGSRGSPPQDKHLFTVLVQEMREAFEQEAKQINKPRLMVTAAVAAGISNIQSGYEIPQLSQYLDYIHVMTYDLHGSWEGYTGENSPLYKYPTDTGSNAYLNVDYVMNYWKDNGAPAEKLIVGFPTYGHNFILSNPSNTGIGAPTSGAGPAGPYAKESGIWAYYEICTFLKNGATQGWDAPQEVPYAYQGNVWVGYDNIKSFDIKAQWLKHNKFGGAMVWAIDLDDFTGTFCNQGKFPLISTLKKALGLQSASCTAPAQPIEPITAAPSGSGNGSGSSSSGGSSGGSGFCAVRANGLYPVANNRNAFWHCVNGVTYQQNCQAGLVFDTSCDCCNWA

What is called IC50 is the concentration that gives 50% inhibition. Regarding `Nc1nnc(N2CCC(N3C[C@H](C(=O)N4CCC(F)(F)C4)OC[C@@H]3Cc3ccc(Cl)cc3)CC2)[nH]1` [Example 54, ((2R,5S)-4-(1-(5-amino-4H-1,2,4-triazol-3-yl)piperidin-4-yl)-5-(4-chlorobenzyl)-morpholin-2-yl)(3,3-difluoropyrrolidin-1-yl)methanone 2,2,2-trifluoroacetate], the 50% inhibitory concentration (IC50) is 100 to 1000 nM at recombinant human CHIT1, under 100 nM on recombinant human AMCase and over 100000 nM on hERG channel (Table 1).
Turning to `Nc1nnc(N2CCC(N3CCCC[C@@H]3Cc3ccc(Cl)cc3)CC2)[nH]1` [Example C4, reference compound], the 50% inhibitory concentration (IC50) at hERG channel (Table 2, comparative examples) fell in the range of 1000 to 10000 nM.
Still for that read-out and setting: then `CC(C)C[C@H]1CN(C2CCN(c3nnc(N)[nH]3)CC2)[C@@H](Cc2ccc(Cl)cc2)CN1C` [Example C12, reference compound], with under 1000 nM.
For the molecule `Nc1nnc(N2CCC(N3CC(F)(F)C[C@@H]3Cc3ccc(Cl)cc3)CC2)[nH]1` [Example 56, (S)-5-(4-(2-(4-chlorobenzyl)-4,4-difluoropyrrolidin-1-yl)piperidin-1-yl)-4H-1,2,4-triazol-3-amine dihydrochloride], the IC50 on recombinant human CHIT1 is under 100 nM.
As for `Nc1nnc(N2CCC(N3C[C@H](COC(F)F)OC[C@@H]3Cc3ccc(Cl)cc3)CC2)[nH]1` [Example 40, 5-(4-((2R,5S)-5-(4-chlorobenzyl)-2-((difluoromethoxy)methyl)morpholino)-piperidin-1-yl)-4H-1,2,4-triazol-3-amine 2,2,2-trifluoroacetate], the IC50 at recombinant human CHIT1 and on recombinant human AMCase was under 100 nM each time.
On hERG channel (Table 2, comparative examples), `Nc1nnc(N2CCC(N3C[C@@H]4CCCN4C[C@@H]3Cc3ccc(Cl)cc3)CC2)[nH]1` [Example C15, reference compound] returned a half-maximal inhibitory concentration (IC50) of 1000 to 10000 nM.
With `Nc1nnc(N2CCC(N3C[C@H](CN4CCCCC4=O)OC[C@@H]3Cc3ccc(Cl)cc3)CC2)[nH]1` [Example 35, 1-(((2R,5S)-4-(1-(5-amino-4H-1,2,4-triazol-3-yl)piperidin-4-yl)-5-(4-chlorobenzyl)-morpholin-2-yl)methyl)piperidin-2-one 2,2,2-trifluoroacetate], the IC50 at recombinant human CHIT1 and at recombinant human AMCase was under 100 nM each time.
As for `CN1C[C@H](Cc2ccc(Cl)cc2)N(C2CCN(c3nnc(N)[nH]3)CC2)C[C@@H]1CC1CCCCC1` [Example C11, reference compound], the 50% inhibitory concentration (IC50) at hERG channel (Table 2, comparative examples) was under 1000 nM.
Still for that read-out and setting: the value for `CO[C@H]1CN(C2CCN(c3nnc(N)[nH]3)CC2)[C@H]1Cc1ccc(Cl)cc1` [Example C6, reference compound] was under 1000 nM.
Still for that read-out and setting: then `COC(C)(C)[C@H]1CN(C2CCN(c3nnc(N)[nH]3)CC2)[C@@H](Cc2ccc(Cl)cc2)CO1` [Example C3, reference compound], with 10000 to 25000 nM.
`Nc1nnc(N2CCC(N3Cc4cncn4C[C@@H]3Cc3ccc(C(F)(F)F)cc3)CC2)[nH]1` [Example 77, (S)-5-(4-(6-(4-(trifluoromethyl)benzyl)-5,6-dihydroimidazo[1,5-a]pyrazin-7(8H)-yl)piperidin-1-yl)-4H-1,2,4-triazol-3-amine 2,2,2-trifluoroacetate]: on recombinant human CHIT1, the IC50 lay in the range of 1000 to 10000 nM.
With `CN1C[C@H](Cc2ccc(Cl)cc2)N(C2CCN(c3nnc(N)[nH]3)CC2)Cc2cc(Cl)ccc21` [Example C18, reference compound], the concentration for half-maximal inhibition (IC50) on hERG channel (Table 2, comparative examples) is under 1000 nM.
In the case of `Nc1nnc(N2CCC(N3C[C@H](CN4CCC(F)(F)CC4)OC[C@@H]3Cc3ccc(Cl)cc3)CC2)[nH]1` [Example 38, 5-(4-((2S,5S)-5-(4-chlorobenzyl)-2-((4,4-difluoropiperidin-1-yl)methyl)-morpholino)piperidin-1-yl)-4H-1,2,4-triazol-3-amine 2,2,2-trifluoroacetate], the half-inhibitory concentration (IC50) at recombinant human CHIT1 and on recombinant human AMCase was under 100 nM in each case.
`Nc1nnc(N2CCC(N3CCC[C@@H]3Cc3ccc(Cl)cc3)CC2)[nH]1` [Example C7, reference compound] showed a half-maximal inhibitory concentration (IC50) on hERG channel (Table 2, comparative examples) of 1000 to 10000 nM.
On the same count and under the same terms, then `CC(C)C[C@H]1CN(C2CCN(c3nnc(N)[nH]3)CC2)[C@@H](Cc2ccc(Cl)cc2)CO1` [Example C2, reference compound], with 1000 to 10000 nM; and `Nc1nnc(N2CCC(N3Cc4cc(Cl)cc(Cl)c4OC[C@@H]3Cc3ccc(Cl)cc3)CC2)[nH]1` [Example C21, reference compound], with 1000 to 10000 nM.
At hERG channel (Table 2, comparative examples), `Nc1nnc(N2CCC(N3CCOC[C@@H]3Cc3ccc(Cl)cc3)CC2)[nH]1` [Example C1, reference compound] yielded an IC50 of 10000 to 25000 nM.
Turning to `Nc1nnc(N2CCC(N3CC4CC4C[C@@H]3Cc3ccc(Cl)cc3)CC2)[nH]1` (stereo partly drawn) [Example 72, 5-(4-((4R)-4-(4-chlorobenzyl)-3-azabicyclo[4.1.0]heptan-3-yl)piperidin-1-yl)-4H-1,2,4-triazol-3-amine 2,2,2-trifluoroacetate], the IC50 on recombinant human CHIT1 was 100 to 1000 nM; on recombinant human AMCase, under 100 nM.
`CN1C[C@H](Cc2ccc(Cl)cc2)N(C2CCN(c3nnc(N)[nH]3)CC2)C[C@@H]1Cc1ccc(Cl)cc1` [Example C10, reference compound]: the 50% inhibitory concentration (IC50) on hERG channel (Table 2, comparative examples) was under 1000 nM.
Take `CC1(O)CCN(C2CCN(c3nnc(N)[nH]3)CC2)[C@@H](Cc2ccc(Cl)cc2)C1` (stereo partly drawn) [Example 59, (2S)-1′-(5-amino-4H-1,2,4-triazol-3-yl)-2-(4-chlorobenzyl)-4-methyl-[1,4′-bipiperidin]-4-ol 2,2,2-trifluoroacetate]: the 50% inhibitory concentration (IC50) on recombinant human CHIT1 lay in the range of 1000 to 10000 nM; at hERG channel (Table 1), 25000 to 100000 nM.
In turn, `Nc1nnc(N2CCC(N3Cc4cc(Cl)ccc4OC[C@@H]3Cc3ccc(Cl)cc3)CC2)[nH]1` [Example C20, reference compound] came in with an IC50 at hERG channel (Table 2, comparative examples) of 1000 to 10000 nM.
On to `Nc1nnc(N2CCC(N3C[C@H](COCC(F)F)OC[C@@H]3Cc3ccc(Cl)cc3)CC2)[nH]1` [Example 43, 5-(4-((2R,5S)-5-(4-chlorobenzyl)-2-((2,2-difluoroethoxy)methyl)morpholino)-piperidin-1-yl)-4H-1,2,4-triazol-3-amine 2,2,2-trifluoroacetate], for which the IC50 on recombinant human CHIT1 and on recombinant human AMCase was under 100 nM in each case.
Turning to `CC(F)(F)[C@H]1CN(C2CCN(c3nnc(N)[nH]3)CC2)[C@@H](Cc2ccc(Cl)cc2)CO1` [Example 42, 5-(4-((2R,5S)-5-(4-chlorobenzyl)-2-(1,1-difluoroethyl)morpholino)piperidin-1-yl)-4H-1,2,4-triazol-3-amine dihydrochloride], the IC50 at recombinant human CHIT1 and at recombinant human AMCase was under 100 nM each time.
As for `C[C@H]1CN(C2CCN(c3nnc(N)[nH]3)CC2)[C@@H](Cc2ccc(Cl)cc2)CN1C` [Example C8, reference compound], the 50% inhibitory concentration (IC50) on hERG channel (Table 2, comparative examples) lay within 1000 to 10000 nM.
Same read-out and setting: then `Nc1nnc(N2CCC(N3C[C@@H](O)C[C@@H]3Cc3ccc(Cl)cc3)CC2)[nH]1` [Example C14, reference compound], with 10000 to 25000 nM.
In the case of `CC(C)CN1CCN(C2CCN(c3nnc(N)[nH]3)CC2)[C@@H](Cc2ccc(Cl)cc2)C1` [Example C9, reference compound], the IC50 at hERG channel (Table 2, comparative examples) lay in the range of 1000 to 10000 nM.
On to `C[C@@H]([C@H]1CN(C2CCN(c3nnc(N)[nH]3)CC2)[C@@H](Cc2ccc(Cl)cc2)CO1)n1cccn1` [Example 18, 5-(4-((2R,5S)-2-((S)-1-(1H-pyrazol-1-yl)ethyl)-5-(4-chlorobenzyl)morpholino)-piperidin-1-yl)-4H-1,2,4-triazol-3-amine 2,2,2-trifluoroacetate], for which the IC50 at recombinant human CHIT1 and at recombinant human AMCase was under 100 nM in each case.
With `C[C@H]([C@H]1CN(C2CCN(c3nnc(N)[nH]3)CC2)[C@@H](Cc2ccc(Cl)cc2)CO1)n1cccn1` [Example 19, 5-(4-((2R,5S)-2-((R)-1-(1H-pyrazol-1-yl)ethyl)-5-(4-chlorobenzyl)morpholino)-piperidin-1-yl)-4H-1,2,4-triazol-3-amine 2,2,2-trifluoroacetate], the IC50 at recombinant human CHIT1 and at recombinant human AMCase was under 100 nM throughout.
As for `CN1C[C@H](Cc2ccc(Cl)cc2)N(C2CCN(c3nnc(N)[nH]3)CC2)Cc2ccccc21` [Example C17, reference compound], at hERG channel (Table 2, comparative examples), the half-inhibitory concentration (IC50) lay within 1000 to 10000 nM.
On to `CO[C@@H]1CC[C@H](Cc2ccc(Cl)cc2)N(C2CCN(c3nnc(N)[nH]3)CC2)C1` [Example 71, 5-((2R,5R)-2-(4-chlorobenzyl)-5-methoxy-[1,4′-bipiperidin]-1′-yl)-4H-1,2,4-triazol-3-amine 2,2,2-trifluoroacetate], for which the half-maximal inhibitory concentration (IC50) on recombinant human CHIT1 was in the range of 100 to 1000 nM; on hERG channel (Table 1), 25000 to 100000 nM.
In the case of `Nc1nnc(N2CCC(N3C[C@H](O)CC[C@@H]3Cc3ccc(Cl)cc3)CC2)[nH]1` [Example 70, (3R,6R)-1′-(5-amino-4H-1,2,4-triazol-3-yl)-6-(4-chlorobenzyl)-[1,4′-bipiperidin]-3-ol 2,2,2-trifluoroacetate], the concentration for half-maximal inhibition (IC50) at recombinant human CHIT1 and on recombinant human AMCase was under 100 nM in each case.
